Laboratory results from patent US20230235036A1, “ACVR1 (ALK2) RECEPTOR INHIBITION TO TREAT NEUROLOGICAL DISEASES” (The J. David Gladstone Institutes, a testamentary trust …, priority 2020, published 2023).
Entries after “also recorded” stand apart in the source; their conditions may differ. Read-outs that look alike come from different tables or passages of the source. Blank lines part the entries; values can stand above or below the compound they belong to.

How the values were obtained:
primary rat OPCs = test: OPC-X-screen: OPC differentiation to MBP+ OLs or GFAP+ astrocytes in presence of fibrinogen; assay type: cell-based; conditions: for OPC differentiation to mature MBP+ OLs under extrinsic inhibition by fibrinogen: myelin-promoting compound screen, fibrinogen 1.5 mg/ml, benztropine, clemastine, quetiapine, miconazole, (±)U-50488 1 μM, clobetasol 5 μM, XAV-939 0.1 μM; for OPC differentiation to mature MBP+ OLs under extrinsic inhibition by fibrinogen / cell-fate switch of OPCs to GFAP+ cells by fibrinogen: DMH1 1 μM; for cell-fate switch of OPCs to GFAP+ cells by fibrinogen: fibrinogen-treated OPCs, clemastine 1 μM
[1] = system: BMP signaling (P-SMAD1/5, ID2) in primary rat OPCs; test: Immunoblot of phospho-SMAD1/5 and ID2 in fibrinogen-treated OPCs; assay type: cell-based
Description: Cells or tissue were lysed in RIPA lysis buffer (Thermo Fisher Scientific) supplemented with protease/phosphatase inhibitor cocktails (Calbiochem) and lysates were cleared by centrifuging at 13,000×g for 15 minutes at 4° C. Equal amounts of protein were loaded in […] bis-tris gels (Thermo Fisher Scientific) and analyzed by western blotting. Bands were visualized with HRP-conjugated secondary antibodies (Cell Signaling Technology). Densitometry was performed using ImageJ Software (NIH) with values for each band normalized to GAPDH loading controls from the same membrane. Primary antibodies were: Id2 (1:1000, rabbit monoclonal, #M213, CalBioreagents); phospho-Smad1/5 (1:1000, rabbit monoclonal, #9516, Cell Signaling Technology); GAPDH (1:1000, rabbit monoclonal, #2118, Cell Signaling Technology)

PLP-EAE = test: In vivo PLP-EAE
NOD-MOG35-55 EAE mice = test: Progressive NOD-MOG35-55 EAE, therapeutic treatment; assay type: in vivo, mouse
[2] = system: NG2-CreER™:Rosa^tdTomato/+ MOG35-55-EAE mice; conditions: vs saline
Water solubility = assay type: physicochemical
[3] = fibrinogen alone vs control, OPC-X assay
[4] = LDN-212854 dose response 5 μM to 2 nM, fibrinogen 2.5 mg/ml, 3 days
[5] = in vivo 2P imaging at chronic EAE

Compound: CN1[C@@H]2CC[C@H]1C[C@@H](OC(c1ccccc1)c1ccccc1)C2 [benztropine]
OPC differentiation to mature MBP+ OLs under extrinsic inhibition by fibrinogen (primary rat OPCs; 3 days): did not overcome extrinsic inhibition of OPC differentiation by fibrinogen

Compound: fibrinogen
decrease of MBP+ mature OLs as compared to controls (primary rat OPCs; [3]): ~60%
increase of GFAP+ astrocyte-like cells as compared to controls (primary rat OPCs; [3]): ~60%

Compound: C[C@H]1C[C@H]2[C@@H]3CCC4=CC(=O)C=C[C@]4(C)[C@@]3(F)[C@@H](O)C[C@]2(C)[C@@]1(O)C(=O)CCl [clobetasol]
OPC differentiation to mature MBP+ OLs under extrinsic inhibition by fibrinogen (primary rat OPCs; 3 days): did not overcome extrinsic inhibition of OPC differentiation by fibrinogen

Compound: CN1CCC[C@@H]1CCO[C@](C)(c1ccccc1)c1ccc(Cl)cc1 [clemastine]
fibrinogen-induced expression of BMP target protein ID2 [1]: did not block
fibrinogen-induced phosphorylation of SMAD1/5 [1]: did not inhibit
fibrinogen-induced phosphorylation of SMAD1/5 ([1]; listed as Clemastine): did not block
OPC differentiation to mature OLs in the presence of fibrinogen (primary rat OPCs; clemastine dose-response, fibrinogen 2.5 mg/ml, differentiation media without T3 or growth factors, 3 days): did not enhance
cell-fate switch of OPCs to GFAP+ cells by fibrinogen (primary rat OPCs; 3 days): did not inhibit SMAD1/5 phosphorylation, a key pathway downstream of BMP receptor activation, or rescue
number of MBP+ cells in control conditions (primary rat OPCs; no fibrinogen, differentiation media without T3 or growth factors, 3 days): increased

Compound: Oc1nc(-c2ccc(C(F)(F)F)cc2)nc2c1CSCC2 [XAV-939]
OPC differentiation to mature MBP+ OLs under extrinsic inhibition by fibrinogen (primary rat OPCs; 3 days): did not overcome extrinsic inhibition of OPC differentiation by fibrinogen

Compound: c1cc(-c2cnn3cc(-c4ccc(N5CCNCC5)cc4)cnc23)c2cccnc2c1 [LDN-212854]
clinical scores (PLP-EAE): improved
spinal cord Id2 protein levels (PLP-EAE): reduced
formation of GFAP+ astrocytes from fibrinogen-treated OPCs (primary rat OPCs; [4]): blocked the formation of GFAP+ astrocytes
mature OL (MBP+) differentiation from fibrinogen-treated OPCs (primary rat OPCs; [4]): enhanced formation of mature oligodendrocytes; also recorded: restored mature OL differentiation
demyelination in spinal cord (NOD-MOG35-55 EAE mice; 30 days treatment, vs saline): reduced
fibrinogen deposition in spinal cord (NOD-MOG35-55 EAE mice; 30 days treatment, vs saline): reduced
clinical scores (NOD-MOG35-55 EAE mice; treated for 30 days, vs saline): significantly improved
group mean of maximum clinical scores (NOD-MOG35-55 EAE mice; treated for 30 days, maximum scores from the last 20 days of treatment, five-point scale): 1.75
clinical scores ([2]; 6 mg/kg twice daily for 14 days starting at peak disease): significantly improved
ID2 expression in NG2 cells in the EAE white matter ([2]; 14 day treatment): decreased
demyelination in spinal cord ([2]; 14 days treatment): reduced
fibrinogen deposition in spinal cord ([2]; 14 days treatment): reduced
myelin damage (myelin circularity) [2, 5]: markedly reduced
perivascular NG2 clusters [2, 5]: markedly reduced
water solubility (Water solubility): water soluble; also recorded: water-soluble

Compound: Clc1ccc(COC(Cn2ccnc2)c2ccc(Cl)cc2Cl)c(Cl)c1 (stereo not drawn) [miconazole]
OPC differentiation to mature MBP+ OLs under extrinsic inhibition by fibrinogen (primary rat OPCs; 3 days): did not overcome extrinsic inhibition of OPC differentiation by fibrinogen

water solubility (Water solubility): not water-soluble
Compound: CC(C)Oc1ccc(-c2cnc3c(-c4ccnc5ccccc45)cnn3c2)cc1 [DMH1]
fibrinogen-induced expression of BMP target protein ID2 [1]: blocked
fibrinogen-induced phosphorylation of SMAD1/5 [1]: blocked
cell-fate switch of OPCs to GFAP+ cells by fibrinogen (primary rat OPCs; 3 days): abolished
OPC differentiation to mature MBP+ OLs under extrinsic inhibition by fibrinogen (primary rat OPCs; 3 days): restored OPC differentiation to mature OLs to control levels

Compound: OCCOCCN1CCN(C2=Nc3ccccc3Sc3ccccc32)CC1 [quetiapine]
OPC differentiation to mature MBP+ OLs under extrinsic inhibition by fibrinogen (primary rat OPCs; 3 days): did not overcome extrinsic inhibition of OPC differentiation by fibrinogen
